Laboratory results published in patent publication US9938261B2, “Heterocyclic compounds and methods of use thereof” (AMBIT BIOSCIENCES CORPORATION, priority 2011, dated 2018).
pIC50, pKd: −log10 of the molar value. Where two headings read alike, the source gives them in different places.

Experiments:
M-NFS-60 cells = assay: M-NFS-60 cell proliferation assay (Alamar Blue); format: cell-based, mouse; settings: read-out: CSF1R M-NFS-60 CTB:IC50
Method in brief: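 Alamar Blue reduction (3 h; 560/590 nm) measured viability after 72 h, 37 °C treatment with nine half-log compound concentrations at 0.5% DMSO. Cells: M-CSF-dependent (20 ng/mL) murine M-NFS-60 in RPMI plus 10% FBS. IC50s, averaged from duplicates, reflect half-maximal inhibition of proliferation relative to control.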

FLT3 = target: T1, FLT3 (Homo sapiens, UniProt P36888); assay: Competition binding assay, FLT3 Kd
T1 construct: made in house
T1 sequence (P36888 27-993): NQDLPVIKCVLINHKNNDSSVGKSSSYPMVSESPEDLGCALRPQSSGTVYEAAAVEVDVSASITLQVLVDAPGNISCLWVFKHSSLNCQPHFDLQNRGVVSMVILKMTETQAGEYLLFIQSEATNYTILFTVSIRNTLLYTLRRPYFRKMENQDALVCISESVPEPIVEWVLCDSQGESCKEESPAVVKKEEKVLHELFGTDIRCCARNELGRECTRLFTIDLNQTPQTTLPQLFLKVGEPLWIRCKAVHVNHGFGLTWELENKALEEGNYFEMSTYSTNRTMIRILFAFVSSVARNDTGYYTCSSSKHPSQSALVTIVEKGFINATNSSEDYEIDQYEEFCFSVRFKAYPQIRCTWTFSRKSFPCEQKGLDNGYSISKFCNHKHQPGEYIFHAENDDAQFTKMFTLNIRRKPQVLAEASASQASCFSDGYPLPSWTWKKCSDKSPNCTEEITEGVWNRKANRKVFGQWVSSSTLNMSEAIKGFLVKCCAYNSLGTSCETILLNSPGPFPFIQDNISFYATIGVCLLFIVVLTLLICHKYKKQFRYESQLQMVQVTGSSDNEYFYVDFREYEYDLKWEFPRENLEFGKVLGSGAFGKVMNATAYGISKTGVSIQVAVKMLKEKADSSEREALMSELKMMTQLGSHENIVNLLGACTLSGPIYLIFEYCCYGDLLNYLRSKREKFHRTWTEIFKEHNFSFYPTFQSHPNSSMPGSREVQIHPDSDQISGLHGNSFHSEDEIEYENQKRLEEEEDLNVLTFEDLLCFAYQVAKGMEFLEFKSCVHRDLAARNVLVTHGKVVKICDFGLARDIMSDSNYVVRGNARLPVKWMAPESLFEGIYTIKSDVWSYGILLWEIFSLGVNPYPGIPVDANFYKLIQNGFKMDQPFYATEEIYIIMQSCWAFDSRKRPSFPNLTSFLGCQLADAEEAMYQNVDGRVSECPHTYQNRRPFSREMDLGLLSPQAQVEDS
Method in brief: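 Compound displacement of kinase from bead-immobilized ligand is measured by qPCR after 1 h equilibration at room temperature. Kinases are T7 phage fusions or DNA-tagged HEK-293 products.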

[1] = Mus musculus, M-NFS-60 cell proliferation
[2] = Mus musculus, 72 hours incubation, M-CSF 20 ng/mL
[3] = 72 hours incubation, M-CSF 20 ng/mL

| Compound | pKd (FLT3; competition binding) | pKd (FLT3) | pIC50 (M-NFS-60 cells; [1]) | pIC50 (M-NFS-60 cells; [2]) | pIC50 (M-NFS-60 cells; [3]) |
| --- | --- | --- | --- | --- | --- |
| O[C@@H]1CCCC[C@H]1Nc1nc2ccc(Cc3cnc4[nH]c5ccccc5n34)cc2s1 [Example 205, (1R,2R)-2-((6-((9H-benzo[d]imidazo[1,2-a]imidazol-3-yl)methyl)benzo[d]thiazol-2-yl)amino)cyclohexanol] | 6.00 to 6.70 |  | 5.82 to 6.40 |  |  |
| COc1cc2c(cc1Br)ncn2Cc1ccc2nc(N[C@@H]3CCCC[C@H]3O)sc2c1 [Example 41, (1R,2R)-2-((6-((5-bromo-6-methoxy-1H-benzo[d]imidazol-1-yl)methyl)benzo[d]thiazol-2-yl)amino)cyclohexanol] |  | 6.00 to 6.70 |  | 6.40 to 7.30 |  |
| either (1R,2R)-2-((6-((3H-imidazo[4,5-b]pyridin-3-yl)methyl)benzo[d]thiazol-2-yl)amino)-1-methylcyclohexanol or (1S,2R)-2-((6-((3H-imidazo[4,5-b]pyridin-3-yl)methyl)benzo[d]thiazol-2-yl)amino)-1-methylcyclohexanol [Example 60] |  | 5.30 to 6.00 |  |  | 6.40 to 7.30 |
| O[C@@H]1CCCC[C@H]1Nc1nc2ccc(Cn3cnc4cc(Br)cnc43)cc2o1 [Example 61, (1R,2R)-2-((6-((6-bromo-3H-imidazo[4,5-b]pyridin-3-yl)methyl)benzo[d]oxazol-2-yl)amino)cyclohexanol] |  | ≥ 6.70 |  | ≥ 7.30 |  |
| CC(=O)NCc1cnc2c(c1)ncn2Cc1ccc2nc(N[C@@H]3CCCC[C@H]3O)sc2c1 [Example 99, N-((3-((2-(((1R,2R)-2-hydroxycyclohexyl)amino)benzo[d]thiazol-6-yl)methyl)-3H-imidazo[4,5-b]pyridin-6-yl)methyl)acetamide] |  | 5.30 to 6.00 |  | < 5.82 |  |
| CC(=O)c1cnc2c(c1)ncn2Cc1ccc2nc(N[C@@H]3CCCC[C@H]3O)sc2c1 [Example 73, 1-(3-((2-(((1R,2R)-2-hydroxycyclohexyl)amino)benzo[d]thiazol-6-yl)methyl)-3H-imidazo[4,5-b]pyridin-6-yl)ethanone] |  | 5.30 to 6.00 |  | 6.40 to 7.30 |  |
| either (1S,2R)-2-((6-((3H-imidazo[4,5-b]pyridin-3-yl)methyl)benzo[d]thiazol-2-yl)amino)-1-methylcyclohexanol or (1R,2R)-2-((6-((3H-imidazo[4,5-b]pyridin-3-yl)methyl)benzo[d]thiazol-2-yl)amino)-1-methylcyclohexanol [Example 59] |  | 5.30 to 6.00 |  |  | 6.40 to 7.30 |
| O[C@@H]1Cc2ccccc2[C@H]1Nc1nc2ccc(Cn3cnc4cc(Br)cnc43)cc2s1 [Example 42, (1R,2R)-1-((6-((6-bromo-3H-imidazo[4,5-b]pyridin-3-yl)methyl)benzo[d]thiazol-2-yl)amino)-2,3-dihydro-1H-inden-2-ol] |  | 5.30 to 6.00 |  | 6.40 to 7.30 |  |
| either (1R,2R)-1-((6-((4-(1-methyl-1H-pyrazol-4-yl)-1H-imidazol-1-yl)methyl)benzo[d]thiazol-2-yl)amino)-2,3-dihydro-1H-inden-2-ol or (1R,2R)-1-((6-((5-(1-methyl-1H-pyrazol-4-yl)-1H-imidazol-1-yl)methyl)benzo[d]thiazol-2-yl)amino)-2,3-dihydro-1H-inden-2-ol [Example 83] |  | ≥ 6.70 |  |  | 6.40 to 7.30 |

Now from value to compound, other results behind:

| pKd (FLT3; competition binding) | pKd (FLT3) | Compound | pIC50 (M-NFS-60 cells; [1]) | pIC50 (M-NFS-60 cells; [2]) | pIC50 (M-NFS-60 cells; [3]) |
| --- | --- | --- | --- | --- | --- |
|  | 5.30 to 6.00 | OCc1cnc2c(c1)ncn2Cc1ccc2nc(N[C@@H]3CCCC[C@H]3O)sc2c1 [Example 84, (1R,2R)-2-((6-((6-(hydroxymethyl)-3H-imidazo[4,5-b]pyridin-3-yl)methyl)benzo[d]thiazol-2-yl)amino)cyclohexanol] |  | 6.40 to 7.30 |  |
| 6.00 to 6.70 |  | O[C@@H]1CCCC[C@H]1Nc1nc2ccc(Cn3cnc4cc(Br)cc(F)c43)cc2s1 [Example 203, (1R,2R)-2-((6-((5-bromo-7-fluoro-1H-benzo[d]imidazol-1-yl)methyl)benzo[d]thiazol-2-yl)amino)cyclohexanol] | 6.40 to 7.30 |  |  |
|  | 6.00 to 6.70 | CSCc1cnc2c(c1)ncn2Cc1ccc2nc(N[C@@H]3CCCC[C@H]3O)sc2c1 [Example 86, (1R,2R)-2-((6-((6-((methylthio)methyl)-3H-imidazo[4,5-b]pyridin-3-yl)methyl)benzo[d]thiazol-2-yl)amino)cyclohexanol] |  | 6.40 to 7.30 |  |
| ≥ 6.70 |  | O[C@@H]1CCCC[C@H]1Nc1nc2ccc(Cn3cnc4cc(-c5cc[nH]n5)ccc43)cc2s1 [Example 211, (1R,2R)-2-((6-((5-(1H-pyrazol-3-yl)-1H-benzo[d]imidazol-1-yl)methyl)benzo[d]thiazol-2-yl)amino)cyclohexanol] | ≥ 7.30 |  |  |
|  | 5.30 to 6.00 | Cn1cc(-c2cn(Cc3ccc4nc(N[C@@H]5CCCC[C@H]5O)oc4c3)cn2)cn1 [Example 77, (1R,2R)-2-((6-((4-(1-methyl-1H-pyrazol-4-yl)-1H-imidazol-1-yl)methyl)benzo[d]oxazol-2-yl)amino)cyclohexanol] |  | 5.82 to 6.40 |  |
|  | 6.00 to 6.70 | O[C@@H]1CCCC[C@H]1Nc1nc2ccc(Cn3cnc4cccnc43)cc2o1 [Example 56, (1R,2R)-2-((6-((3H-imidazo[4,5-b]pyridin-3-yl)methyl)benzo[d]oxazol-2-yl)amino)cyclohexanol] |  | 6.40 to 7.30 |  |
